Source: ChEMBL document CHEMBL3885881, “DrugMatrix”

Species on record: Rattus norvegicus
Experiment: DrugMatrix - Regimen: Daily Repeat
Format: toxicity, organism-based, Sprague-Dawley
Set-up: regimen Daily Repeat, gender Male, age 6-8 weeks
Settings: in vivo, po, route oral GAVAGE, vehicle .5 % CMC; for ABSOLUTE BASOPHIL / ABSOLUTE EOSINOPHIL / ABSOLUTE LYMPHOCYTE / ABSOLUTE MONOCYTE / ABSOLUTE SEGMENTED NEUTROPHIL / BASOPHIL / EOSINOPHIL / ERYTHROCYTE COUNT / HEMATOCRIT / HEMOGLOBIN / LEUKOCYTE COUNT / LYMPHOCYTE / MEAN CORPUSCULAR HEMOGLOBIN / MEAN CORPUSCULAR HEMOGLOBIN CONCENTRATION / MEAN CORPUSCULAR VOLUME / MONOCYTE / NEUTROPHIL / NUCLEATED RED BLOOD CELLS / PLATELET COUNT: tissue Blood; for ALANINE AMINOTRANSFERASE / ALBUMIN / ALKALINE PHOSPHATASE / ASPARTATE AMINOTRANSFERASE / BLOOD UREA NITROGEN / CARBON DIOXIDE / CHLORIDE / CHOLESTEROL / CREATINE PHOSPHOKINASE / CREATININE / GLUCOSE / LACTATE DEHYDROGENASE / LIPASE / PHOSPHORUS / POTASSIUM / SODIUM / TOTAL BILIRUBIN / TOTAL PROTEIN / URIC ACID: tissue Plasma
[1] = 60 mg/kg, 72 h, dose level Low, time 3 day
[2] = 60 mg/kg, 120 h, dose level Low, time 5 day
[3] = 435 mg/kg, 72 h, dose level High, time 3 day
[4] = 435 mg/kg, 120 h, dose level High, time 5 day

In the case of CCCCCCCCNC(C)C(O)c1ccc(SC(C)C)cc1 (configuration not stated) [SULOCTIDIL], the “ABSOLUTE BASOPHIL” value [1] is reported as 0 CELLS/uL, the “ABSOLUTE EOSINOPHIL” value [1] is reported as 0 CELLS/uL and the “ABSOLUTE LYMPHOCYTE” value [1] is reported as 12874.67 CELLS/uL. The “ABSOLUTE MONOCYTE” value [1] was 326.33 CELLS/uL, the “ABSOLUTE SEGMENTED NEUTROPHIL” value [1] was 2365.67 CELLS/uL and the BASOPHIL [1] was 0%. For the same compound, the EOSINOPHIL [1] was 0%, the “ERYTHROCYTE COUNT” value [1] was 5.66 x10E6/uL and the HEMATOCRIT [1] was 34.83%. For the same compound, the HEMOGLOBIN [1] was 13.2 G/DL, the “LEUKOCYTE COUNT” value [1] was 15.57 x10E3/uL and the LYMPHOCYTE [1] was 81.33%. For the same compound, the “MEAN CORPUSCULAR HEMOGLOBIN” value [1] was 23.33 pg, the “MEAN CORPUSCULAR HEMOGLOBIN CONCENTRATION” value [1] was 37.93 G/DL and the “MEAN CORPUSCULAR VOLUME” value [1] was 61.57 fL. The MONOCYTE [1] was 2.33%, the NEUTROPHIL [1] was 16.33% and the “NUCLEATED RED BLOOD CELLS” value [1] was 0 /100WBC. The “PLATELET COUNT” value [1] was 1204 x10E3/uL, the “ALANINE AMINOTRANSFERASE” value [1] was 56.67 u/L and the ALBUMIN [1] was 4.23 G/DL. For the same compound, the “ALKALINE PHOSPHATASE” value [1] was 425.33 u/L, the “ASPARTATE AMINOTRANSFERASE” value [1] was 91.67 u/L and the “BLOOD UREA NITROGEN” value [1] was 18 mg/dL. For the same compound, the “CARBON DIOXIDE” value [1] was 25 mmol/L, the CHLORIDE [1] was 101.33 MEQ/L and the CHOLESTEROL [1] was 80 mg/dL. The “CREATINE PHOSPHOKINASE” value [1] was 410.67 u/L, the CREATININE [1] was 0.23 mg/dL and the GLUCOSE [1] was 140.33 mg/dL. For the same compound, the “LACTATE DEHYDROGENASE” value [1] was 416.33 u/L, the LIPASE [1] was 10.33 u/L and the PHOSPHORUS [1] was 14.3 mg/dL. For the same compound, the POTASSIUM [1] was 5.93 MEQ/L, the SODIUM [1] was 145.47 MEQ/L and the “TOTAL BILIRUBIN” value [1] was 0.17 mg/dL. The “TOTAL PROTEIN” value [1] was 6.27 G/DL, the “URIC ACID” value [1] was 1.4 mg/dL and the “ABSOLUTE BASOPHIL” value [2] was 0 CELLS/uL. The “ABSOLUTE EOSINOPHIL” value [2] was 0 CELLS/uL, the “ABSOLUTE LYMPHOCYTE” value [2] was 10938.33 CELLS/uL and the “ABSOLUTE MONOCYTE” value [2] was 387.67 CELLS/uL. For the same compound, the “ABSOLUTE SEGMENTED NEUTROPHIL” value [2] was 1740.67 CELLS/uL, the BASOPHIL [2] was 0% and the EOSINOPHIL [2] was 0%. The “ERYTHROCYTE COUNT” value [2] was 5.48 x10E6/uL, the HEMATOCRIT [2] was 33.37% and the HEMOGLOBIN [2] was 13.03 G/DL. The “LEUKOCYTE COUNT” value [2] was 13.07 x10E3/uL, the LYMPHOCYTE [2] was 83.67% and the “MEAN CORPUSCULAR HEMOGLOBIN” value [2] was 23.83 pg. The “MEAN CORPUSCULAR HEMOGLOBIN CONCENTRATION” value [2] was 39.1 G/DL, the “MEAN CORPUSCULAR VOLUME” value [2] was 61.07 fL and the MONOCYTE [2] was 3%. The NEUTROPHIL [2] was 13.33%, the “NUCLEATED RED BLOOD CELLS” value [2] was 0 /100WBC and the “PLATELET COUNT” value [2] was 1209.67 x10E3/uL. For the same compound, the “ALANINE AMINOTRANSFERASE” value [2] was 49.33 u/L, the ALBUMIN [2] was 4.03 G/DL and the “ALKALINE PHOSPHATASE” value [2] was 405.67 u/L. The “ASPARTATE AMINOTRANSFERASE” value [2] was 76 u/L, the “BLOOD UREA NITROGEN” value [2] was 16.67 mg/dL and the “CARBON DIOXIDE” value [2] was 29.33 mmol/L. For the same compound, the CHLORIDE [2] was 98.67 MEQ/L, the CHOLESTEROL [2] was 65.67 mg/dL and the “CREATINE PHOSPHOKINASE” value [2] was 223 u/L. For the same compound, the CREATININE [2] was 0.21 mg/dL, the GLUCOSE [2] was 141.33 mg/dL and the “LACTATE DEHYDROGENASE” value [2] was 112 u/L. It also gave an LIPASE [2] of 9.67 u/L, a PHOSPHORUS [2] of 13.63 mg/dL and a POTASSIUM [2] of 6.46 MEQ/L. For the same compound, the SODIUM [2] was 145.77 MEQ/L, the “TOTAL BILIRUBIN” value [2] was 0.1 mg/dL and the “TOTAL PROTEIN” value [2] was 5.97 G/DL. For the same compound, the “URIC ACID” value [2] was 1.43 mg/dL, the “ABSOLUTE BASOPHIL” value [3] was 0 CELLS/uL and the “ABSOLUTE EOSINOPHIL” value [3] was 0 CELLS/uL. The “ABSOLUTE LYMPHOCYTE” value [3] was 12119.33 CELLS/uL, the “ABSOLUTE MONOCYTE” value [3] was 277.33 CELLS/uL and the “ABSOLUTE SEGMENTED NEUTROPHIL” value [3] was 1536.67 CELLS/uL. The BASOPHIL [3] was 0%, the EOSINOPHIL [3] was 0% and the “ERYTHROCYTE COUNT” value [3] was 5.33 x10E6/uL. For the same compound, the HEMATOCRIT [3] was 33.43%, the HEMOGLOBIN [3] was 12.9 G/DL and the “LEUKOCYTE COUNT” value [3] was 13.93 x10E3/uL. The LYMPHOCYTE [3] was 87%, the “MEAN CORPUSCULAR HEMOGLOBIN” value [3] was 24.23 pg and the “MEAN CORPUSCULAR HEMOGLOBIN CONCENTRATION” value [3] was 38.6 G/DL. For the same compound, the “MEAN CORPUSCULAR VOLUME” value [3] was 62.83 fL, the MONOCYTE [3] was 2% and the NEUTROPHIL [3] was 11%. For the same compound, the “NUCLEATED RED BLOOD CELLS” value [3] was 0 /100WBC, the “PLATELET COUNT” value [3] was 1170.67 x10E3/uL and the “ALANINE AMINOTRANSFERASE” value [3] was 123 u/L. The ALBUMIN [3] was 4.1 G/DL, the “ALKALINE PHOSPHATASE” value [3] was 384.67 u/L and the “ASPARTATE AMINOTRANSFERASE” value [3] was 116 u/L. For the same compound, the “BLOOD UREA NITROGEN” value [3] was 16 mg/dL, the “CARBON DIOXIDE” value [3] was 24.67 mmol/L and the CHLORIDE [3] was 102 MEQ/L. The CHOLESTEROL [3] was 71.33 mg/dL, the “CREATINE PHOSPHOKINASE” value [3] was 478.67 u/L and the CREATININE [3] was 0.2 mg/dL. For the same compound, the GLUCOSE [3] was 126.67 mg/dL, the “LACTATE DEHYDROGENASE” value [3] was 279.67 u/L and the LIPASE [3] was 10.67 u/L. For the same compound, the PHOSPHORUS [3] was 11.9 mg/dL, the POTASSIUM [3] was 5.78 MEQ/L and the SODIUM [3] was 145.13 MEQ/L. The “TOTAL BILIRUBIN” value [3] was 0.1 mg/dL, the “TOTAL PROTEIN” value [3] was 5.8 G/DL and the “URIC ACID” value [3] was 1.2 mg/dL. The “ABSOLUTE BASOPHIL” value [4] was 0 CELLS/uL, the “ABSOLUTE EOSINOPHIL” value [4] was 49.33 CELLS/uL and the “ABSOLUTE LYMPHOCYTE” value [4] was 11875.33 CELLS/uL. For the same compound, the “ABSOLUTE MONOCYTE” value [4] was 141.33 CELLS/uL, the “ABSOLUTE SEGMENTED NEUTROPHIL” value [4] was 1867.33 CELLS/uL and the BASOPHIL [4] was 0%. The EOSINOPHIL [4] was 0.33%, the “ERYTHROCYTE COUNT” value [4] was 6 x10E6/uL and the HEMATOCRIT [4] was 36.07%. For the same compound, the HEMOGLOBIN [4] was 13.93 G/DL, the “LEUKOCYTE COUNT” value [4] was 13.93 x10E3/uL and the LYMPHOCYTE [4] was 85.33%. The “MEAN CORPUSCULAR HEMOGLOBIN” value [4] was 23.27 pg, the “MEAN CORPUSCULAR HEMOGLOBIN CONCENTRATION” value [4] was 38.67 G/DL and the “MEAN CORPUSCULAR VOLUME” value [4] was 60.1 fL. For the same compound, the MONOCYTE [4] was 1%, the NEUTROPHIL [4] was 13.33% and the “NUCLEATED RED BLOOD CELLS” value [4] was 0 /100WBC. The “PLATELET COUNT” value [4] was 1140 x10E3/uL, the “ALANINE AMINOTRANSFERASE” value [4] was 337 u/L and the ALBUMIN [4] was 3.63 G/DL. The “ALKALINE PHOSPHATASE” value [4] was 249.33 u/L, the “ASPARTATE AMINOTRANSFERASE” value [4] was 188 u/L and the “BLOOD UREA NITROGEN” value [4] was 13.67 mg/dL. The “CARBON DIOXIDE” value [4] was 25 mmol/L, the CHLORIDE [4] was 105 MEQ/L and the CHOLESTEROL [4] was 25 mg/dL. The “CREATINE PHOSPHOKINASE” value [4] was 1012.33 u/L, the CREATININE [4] was 0.12 mg/dL and the GLUCOSE [4] was 128.67 mg/dL. The “LACTATE DEHYDROGENASE” value [4] was 213 u/L, the LIPASE [4] was 8.67 u/L and the PHOSPHORUS [4] was 10.37 mg/dL. For the same compound, the POTASSIUM [4] was 5.67 MEQ/L, the SODIUM [4] was 144.2 MEQ/L and the “TOTAL BILIRUBIN” value [4] was 0.1 mg/dL. The “TOTAL PROTEIN” value [4] was 5.1 G/DL and the “URIC ACID” value [4] was 1.23 mg/dL.
